Where “and” joins values, the source holds several entries; their conditions need not be identical. Identical values can stand only once. Like-named read-outs stand apart in the source and are kept apart here.
Legend:
[1] = test system: DBA1/J mice; test: Collagen type II induced arthritis, therapeutic treatment (Example 2); type: in vivo; settings: for Ankylosis score / Incidence of ankylosis (% of animals affected) / Incidence of arthritis (% of animals affected) / Mean Arthritic Score / Mean number of affected paws: treated day 30-49
Procedure: Male DBA1/J mice were immunized intradernally with collagen type II emulsified in complete Freund's Adjuvant on day 0 and day 21. Treatment of mice was started on day 30 (10 animals/treatment group; the animals were randomized so that both groups had similar arthritic symptoms at the start). Mice were treated orally with vehicle [DMSO: cremophor: 0.9% NaCl solution, 1:1:8 (v:v:v)] or compound 75 at a dose of 100 mg/kg. Three times per week symptoms of arthritis were scored. Animals were treated till day 49, at day 50 animals were sacrificed, blood was collected for analysis of anti-collagen antibodies, and […].
Trained lab personnel evaluated the severity and incidence of the arthritic symptoms at regular intervals without knowing which animals had received vehicle or drug.
In Table 14, the mean arthritic score is shown. For each paw, a score ranging from 0 (normal) to 2 (maximal redness and swelling) is given. The score for the 4 paws is summed up and averaged for the 10 animals per group (=Mean arthritic score).
Table 16 summarizes the results of the observations for the occurrence of ankylosis as the arthritis progresses. Each paw is scored as follows: 0 for no ankylosis, 1 for ankylosis. Again the results for the four paws are summed up and averaged for the 10 animals. Ankylosis starts to occur around day 30. During the whole treatment period, ankylosis is lower in the drug treated group than in the vehicle treated group.
In table 19, the radiographic score of the individual mice is depicted. For each paw, a score ranging from 0 (normal) to 2 (deformation of the whole paw was given. The scores of the four paws are summed up.

[2] = test system: Lewis rats; type: in vivo; settings: for % change in body-weight #<−21% / % change in body-weight #>10% / % change in body-weight Mean: day 14-21, 6 animals; for % change in swelling Mean / % change in swelling #<80% / % change in swelling #>170% / % change in swelling #>150%: paw swelling day 21 as % of day 14, 6 animals; for % change in swelling #<80%: criterion for anti-inflammatory activity; for % change in swelling #>170%: pro-inflammatory activity; for % change in swelling #>150%: tendency towards pro-inflammatory activity
Procedure: Male SPF-breeded Lewis rats (Charles River; 225-275 g) were housed in individual cages under standard laboratory conditions (21±2° C.; 65±15% relative humidity; light-dark cycle set at 12 h). Mycobacterium butyricum (heat-killed and suspended in paraffin oil at 5 mg/ml; 0.05 ml) was inoculated intradermally at the tail base of the rats. On day 14 after inoculation, the diameters (Ø) of the hind paws and tibiotarsal joints (ΣØ14) were compared with the initial diameters (ΣØ0) and rats with a significant swelling (ΔØ14-0≧6.0 mm) were assigned to the various treatment groups (n=6; […]).
Body weight and paw diameters were measured at days 14 and after 1-week treatment at day 21. Diet consumption was also measured and the number of dead animals on day 21 was noted. Paw swelling at day 21 was expressed as a percentage of the initial inflammation at the start of the treatment (day 14). Control animals were included in each experimental session. Test compounds were administered via a medicated diet. For that purpose, compounds were mixed with ground pellets in proportion to give an approximate daily dose. This medicated diet was administered ad libitum during the experimental period. The real dose was calculated by multiplying the consumed amount of diet with the concentration of the test compound in the diet.
Based on a frequency distribution of a series of control data (n=181), all-or-nothing criteria for drug-induced effects were established. The averaged body weight change during the 1 week experimental period in the control population was a decrease of 7 g. […] In the same set of control animals, paw swelling at day 21 was on the average 117% of the initial value at day 14.

[3] = 100 mg/kg orally from day 30, versus vehicle
[4] = day 22 after immunization, 100 mpk orally
[5] = day 24 after immunization, 100 mpk orally
[6] = day 28 after immunization, 100 mpk orally
[7] = day 29 after immunization, 100 mpk orally
[8] = day 31 after immunization, 100 mpk orally
[9] = day 34 after immunization, 100 mpk orally
[10] = day 36 after immunization, 100 mpk orally
[11] = day 38 after immunization, 100 mpk orally
[12] = day 41 after immunization, 100 mpk orally
[13] = day 43 after immunization, 100 mpk orally
[14] = day 45 after immunization, 100 mpk orally
[15] = day 48 after immunization, 100 mpk orally
[16] = day 50 after immunization, 100 mpk orally
[17] = dose 40 mg/kg via medicated diet
[18] = dose 80 mg/kg via medicated diet
[19] = dose 160 mg/kg via medicated diet

Q: `Cn1cncc1C(N)(c1ccc(Cl)cc1)c1ccc2c(c1)c(-c1cccc(Cl)c1)cc(=O)n2C` (single isomer, unassigned; (+)) [Compound 75, (+)-6-[amino(4-chlorophenyl)(1-methyl-1H-imidazol-5-yl)methyl]-4-(3-chlorophenyl)-1-methyl-2(1H)-quinolinone] was tested. Which “effect on mean arthritic score (in words)” value [1, 3] did it give?
A: clearly suppresses the arthritic score

Q: What about the “effect on mean number of affected paws (in words)” value [1, 3] of the same molecule?
A: reduces that number

Q: And the lethalities ([1]; 100 mg/kg orally, day 30-49)?
A: no lethalities were observed

Q: What about the signs of toxicity ([1]; 100 mg/kg orally, day 30-49) of the same molecule?
A: did not show any signs of toxicity

Q: What about the “Radiographic score, Average” value ([1]; average of 10 mice, 100 mpk orally, treated day 30-49, radiographs at day 50) of the same molecule?
A: 2.3

Q: What about the Ankylosis score [1, 4] of the same molecule?
A: 0.00

Q: What about the “Incidence of ankylosis (% of animals affected)” value [1, 4] of the same molecule?
A: 0%

Q: And the “Incidence of arthritis (% of animals affected)” value [1, 4]?
A: 0%

Q: What about the “Mean Arthritic Score” value [1, 4] of the same molecule?
A: 0.00

Q: And the “Mean number of affected paws” value [1, 4]?
A: 0.00

Q: And the Ankylosis score [1, 5]?
A: 0.00

Q: What about the “Incidence of ankylosis (% of animals affected)” value [1, 5] of the same molecule?
A: 0%

Q: And the “Incidence of arthritis (% of animals affected)” value [1, 5]?
A: 10%

Q: And the “Mean Arthritic Score” value [1, 5]?
A: 0.03

Q: And the “Mean number of affected paws” value [1, 5]?
A: 0.10

Q: And the Ankylosis score [1, 6]?
A: 0.00

Q: What about the “Incidence of ankylosis (% of animals affected)” value [1, 6] of the same molecule?
A: 0%

Q: And the “Incidence of arthritis (% of animals affected)” value [1, 6]?
A: 90%

Q: And the “Mean Arthritic Score” value [1, 6]?
A: 3.50

Q: And the “Mean number of affected paws” value [1, 6]?
A: 2.40

Q: What about the Ankylosis score [1, 7] of the same molecule?
A: 0.00

Q: What about the “Incidence of ankylosis (% of animals affected)” value [1, 7] of the same molecule?
A: 0%

Q: And the “Incidence of arthritis (% of animals affected)” value [1, 7]?
A: 100%

Q: And the “Mean Arthritic Score” value [1, 7]?
A: 4.25

Q: What about the “Mean number of affected paws” value [1, 7] of the same molecule?
A: 2.70

Q: And the Ankylosis score [1, 8]?
A: 0.80

Q: What about the “Incidence of ankylosis (% of animals affected)” value [1, 8] of the same molecule?
A: 60%

Q: And the “Incidence of arthritis (% of animals affected)” value [1, 8]?
A: 100%

Q: And the “Mean Arthritic Score” value [1, 8]?
A: 4.03

Q: And the “Mean number of affected paws” value [1, 8]?
A: 2.80

Q: And the Ankylosis score [1, 9]?
A: 2.50

Q: What about the “Incidence of ankylosis (% of animals affected)” value [1, 9] of the same molecule?
A: 90%

Q: And the “Incidence of arthritis (% of animals affected)” value [1, 9]?
A: 100%

Q: And the “Mean Arthritic Score” value [1, 9]?
A: 3.80

Q: What about the “Mean number of affected paws” value [1, 9] of the same molecule?
A: 2.60

Q: What about the Ankylosis score [1, 10] of the same molecule?
A: 2.40

Q: And the “Incidence of ankylosis (% of animals affected)” value [1, 10]?
A: 90%

Q: What about the “Incidence of arthritis (% of animals affected)” value [1, 10] of the same molecule?
A: 90%

Q: And the “Mean Arthritic Score” value [1, 10]?
A: 3.00

Q: And the “Mean number of affected paws” value [1, 10]?
A: 2.20

Q: What about the Ankylosis score [1, 11] of the same molecule?
A: 2.60

Q: What about the “Incidence of ankylosis (% of animals affected)” value [1, 11] of the same molecule?
A: 100%

Q: And the “Incidence of arthritis (% of animals affected)” value [1, 11]?
A: 90%

Q: And the “Mean Arthritic Score” value [1, 11]?
A: 3.20

Q: What about the “Mean number of affected paws” value [1, 11] of the same molecule?
A: 2.60

Q: What about the Ankylosis score [1, 12] of the same molecule?
A: 1.70

Q: What about the “Incidence of ankylosis (% of animals affected)” value [1, 12] of the same molecule?
A: 70%

Q: And the “Incidence of arthritis (% of animals affected)” value [1, 12]?
A: 90%

Q: And the “Mean Arthritic Score” value [1, 12]?
A: 3.45

Q: And the “Mean number of affected paws” value [1, 12]?
A: 2.40

Q: What about the Ankylosis score [1, 13] of the same molecule?
A: 2.20

Q: And the “Incidence of ankylosis (% of animals affected)” value [1, 13]?
A: 80%

Q: And the “Incidence of arthritis (% of animals affected)” value [1, 13]?
A: 90%

Q: What about the “Mean Arthritic Score” value [1, 13] of the same molecule?
A: 2.15

Q: And the “Mean number of affected paws” value [1, 13]?
A: 2.20

Q: What about the Ankylosis score [1, 14] of the same molecule?
A: 1.90

Q: And the “Incidence of ankylosis (% of animals affected)” value [1, 14]?
A: 80%

Q: What about the “Incidence of arthritis (% of animals affected)” value [1, 14] of the same molecule?
A: 100%

Q: What about the “Mean Arthritic Score” value [1, 14] of the same molecule?
A: 1.33

Q: And the “Mean number of affected paws” value [1, 14]?
A: 1.90

Q: And the Ankylosis score [1, 15]?
A: 2.10

Q: What about the “Incidence of ankylosis (% of animals affected)” value [1, 15] of the same molecule?
A: 90%

Q: What about the “Incidence of arthritis (% of animals affected)” value [1, 15] of the same molecule?
A: 60%

Q: What about the “Mean Arthritic Score” value [1, 15] of the same molecule?
A: 1.58

Q: What about the “Mean number of affected paws” value [1, 15] of the same molecule?
A: 1.50

Q: What about the “Incidence of arthritis (% of animals affected)” value ([1]; day 50 after immunization (end of the treatment period), 100 mpk orally) of the same molecule?
A: 60%

Q: And the Ankylosis score [1, 16]?
A: 0.80

Q: And the “Incidence of ankylosis (% of animals affected)” value [1, 16]?
A: 40%

Q: And the “Mean Arthritic Score” value [1, 16]?
A: 0.88

Q: And the “Mean number of affected paws” value [1, 16]?
A: 1.20

Q: What about the “Radiographic score of individual mice” value ([1]; individual mouse, sum of four paws (0-2 each), 100 mpk orally, treated day 30-49, radiographs at day 50, 100 mg/kg) of the same molecule?
A: 2.5 (2×) and 1.0 and 0.0 (2×) and 5.25 and 2.0 (2×) and 3.0 and 4.75

Q: And the “Radiographic score, Median” value ([1]; median of 10 mice, 100 mpk orally, treated day 30-49, radiographs at day 50)?
A: 2.25

Q: And the “arthritic symptoms (paw swelling, occurrence of ankylosis and deterioration of the joints as observed on radiographs)” value ([1]; oral administration to mice with established arthritis)?
A: reduces the arthritic symptoms

Q: What about the “% change in body-weight #<−21%” value [2, 17] of the same molecule?
A: 0 number of animals

Q: And the “% change in body-weight #>10%” value [2, 17]?
A: 0 number of animals

Q: What about the “% change in body-weight Mean” value [2, 17] of the same molecule?
A: −9%

Q: What about the “% change in swelling Mean” value [2, 17] of the same molecule?
A: 94%

Q: What about the “% change in swelling #<80%” value [2, 17] of the same molecule?
A: 0 number of animals

Q: What about the “% change in swelling #>170%” value [2, 17] of the same molecule?
A: 0 number of animals

Q: And the “% change in swelling #>150%” value [2, 17]?
A: 0 number of animals

Q: And the “% change in body-weight #<−21%” value [2, 18]?
A: 4 number of animals

Q: What about the “% change in body-weight #>10%” value [2, 18] of the same molecule?
A: 0 number of animals

Q: And the “% change in body-weight Mean” value [2, 18]?
A: −19%

Q: What about the “% change in swelling Mean” value [2, 18] of the same molecule?
A: 86%

Q: What about the “% change in swelling #<80%” value [2, 18] of the same molecule?
A: 3 number of animals

Q: What about the “% change in swelling #>170%” value [2, 18] of the same molecule?
A: 0 number of animals

Q: And the “% change in swelling #>150%” value [2, 18]?
A: 0 number of animals

Q: And the “% change in body-weight #<−21%” value [2, 19]?
A: 4 number of animals

Q: What about the “% change in body-weight #>10%” value [2, 19] of the same molecule?
A: 0 number of animals

Q: What about the “% change in body-weight Mean” value [2, 19] of the same molecule?
A: −24%

Q: And the “% change in swelling Mean” value [2, 19]?
A: 79%

Q: And the “% change in swelling #<80%” value [2, 19]?
A: 3 number of animals

Q: And the “% change in swelling #>170%” value [2, 19]?
A: 0 number of animals

Q: What about the “% change in swelling #>150%” value [2, 19] of the same molecule?
A: 0 number of animals

— patent publication US6451812B1, “Farnesyl protein transferase inhibitors for treating arthropathies” (Janssen Pharmaceutica N.V., priority 1998, dated 2002)
